Data: patent US20240325544A1, “CATIONIC LIPID FOR COVALENT MODIFICATION OF PEPTIDES” (PharmalN Corporation, priority 2023, published 2024)
Bridge positions count the residues as written; N and C are the ends. Square brackets hold non-standard residues; d marks the D form. Peptide text beside a SMILES is read from it. * marks the point of attachment. Palmitoyl = CCCCCCCCCCCCCCCC(=O)*; Dap = NC[C@H](N)C(=O)O; AEEA = NCCOCCOCC(=O)O

Experiments:
human NPRB = target: T1, human NPRB (Homo sapiens, UniProt P20594); experiment: Fluorescence polarization (FP) assay with CNP-F* probe, NPRB; format: binding; conditions: 150 nM test article, 5 nM CNP-F*, 50 nM human NPRB
T1 construct: NPRB R1-T433, (GenBank Accn. #NP_003986.2); made in house; host or cells: Expi293 cells
T1 sequence (P20594 23-455): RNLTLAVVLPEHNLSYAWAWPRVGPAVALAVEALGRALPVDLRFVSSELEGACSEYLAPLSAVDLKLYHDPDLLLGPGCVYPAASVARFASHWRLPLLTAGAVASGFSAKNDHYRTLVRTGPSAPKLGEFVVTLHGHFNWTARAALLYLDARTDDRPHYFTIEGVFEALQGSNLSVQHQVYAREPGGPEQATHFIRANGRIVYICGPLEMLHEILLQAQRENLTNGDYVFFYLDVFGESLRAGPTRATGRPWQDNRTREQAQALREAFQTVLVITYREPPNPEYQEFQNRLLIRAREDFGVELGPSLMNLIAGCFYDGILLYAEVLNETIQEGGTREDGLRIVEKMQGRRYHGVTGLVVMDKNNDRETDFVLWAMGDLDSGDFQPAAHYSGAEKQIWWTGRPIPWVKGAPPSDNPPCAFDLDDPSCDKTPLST
Method: Error bars represent standard error of the mean. […] NO.
In the presence of [SEQ ID.
The CNP-F* probe was incubated at a final concentration of 5 nM in the presence of 50 nM human NPRB or NPRC in an assay buffer containing PBS, pH 7.4 and 0.01% Triton X-100. A […] volume of CNP-F* probe and NPR were dispensed into a black 96-well Costar flat-bottom polystyrene plate prior to FP measurement. Next, […] volume of SEQ ID. No. 31 (final concentration 150 nM) was added to the premixed probe and NPR. The plate was incubated at room temperature for 10 min. Fluorescence polarization was then measured on Flexstation 3 (excitation wavelength: 480 nm; emission wavelength: 525 nm and cutoff at 515 nm).
CNP-F* was prepared using solid phase peptide synthesis. […] Next, the crude linear peptide was cleavage with 95% TFA in the presence of carbocation scavengers and ether precipitation.

[1] = system: E0771 breast cancer cells; experiment: Orthotopic E0771 breast cancer model, monotherapy or with anti-PD1 Ab (FIG. 9); format: in vivo, mice
Method: FIG. 9. […] Error bars represent standard error of the mean. Tumor growth kinetics of 6-week-old female C57BL/6J mice (n=7-8 per group) that were orthotopically inoculated with E0771 breast cancer cells (250,000 cells/mouse) in the mammary gland. Starting from Day 4 post-inoculation, anti-PD1 Ab (aPD1) was administered intraperitoneally at 5 mg/kg twice a week for 2 cycles; SEQ ID NO: 31 was administered subcutaneously at a bolus dose of 0.3 mg/kg once daily for 5 days (5 days on, 2 days off) for 3 cycles; or a combination of aPD1 (5 mg/kg IP twice a week; 2 cycles) and SEQ ID NO: 31 (0.3 mg/kg SC once a day for 5 days on and 2 days off; 3 cycles); SEQ ID NO: 31 dose days indicated by dotted line or gridlines. The control group, which received only buffer, was dosed in the same manner as SEQ ID NO: 31 to establish the baseline tumor growth kinetics. […] Statistical analysis was based on Dunnett's test performed by using GraphPad (n=8, 7, 8, and 7; Control, aPD1, SEQ ID NO: 31, Combo (aPD1 and SEQ ID NO: 31) * P<0.05, **** P<0.0001 vs Control group.
Animal care and treatment: Female C57BL/6J mice (6 weeks-old) were purchased from Kyudo (Saga, Japan) and maintained under a 12-hour light/12-hour dark cycle with free access to water and standard mouse diet (CRF diet; Oriental Yeast Co., Ltd, Tokyo Japan). […] Tumor sizes were measured using calipers.

CCCCCCCCCCCCCCCC(=O)NCCOCCOCC(=O)NCCOCCOCC(=O)NCCOCCOCC(=O)N[C@@H](CN)C(=O)N[C@@H](CN)C(=O)NCC(=O)N[C@@H](CC(C)C)C(=O)N[C@@H](CO)C(=O)N[C@@H](CCCCN)C(=O)NCC(=O)N[C@H]1CSSC[C@@H](C(=O)O)NC(=O)CNC(=O)[C@H](CC(C)C)NC(=O)CNC(=O)[C@H](CO)NC(=O)[C@H](CCC(N)=O)NC(=O)[C@H](CO)NC(=O)CNC(=O)[C@H]([C@@H](C)CC)NC(=O)[C@H](CCCNC(=N)N)NC(=O)[C@H](CC(=O)O)NC(=O)[C@H](CC(C)C)NC(=O)[C@H](CCCCN)NC(=O)[C@H](CC(C)C)NC(=O)CNC(=O)[C@H](Cc2ccccc2)NC1=O [SEQ ID NO: 31] ({Palmitoyl-AEEA-AEEA-AEEA}-[Dap][Dap]GLSKGCFGLKLDRIGSQSGLGC-OH; disulfide 8-24; C-terminus assumed)
Binding to NPRB (FP signal of CNP-F* probe) (human NPRB): low FP signal demonstrates binding | Tumor volume compared to Control group and aPD1 group ([1]; combination with aPD1 5 mg/kg IP twice a week, 2 cycles): significant decrease in tumor volume | Tumor volume compared to Control group and aPD1 group ([1]; monotherapy, 0.3 mg/kg SC, 5 days on, 2 days off, 3 cycles): significant decrease in tumor volume
